Results reported in article PMC3522777 (Nature chemical biology, 2012).
pKi: −log10 of the molar value.

Tests used:
[1] = biological target: T1, dihydroceramide desaturase-1 (DES1) (Gallus gallus, UniProt Q5F3C1); assay: retinol isomerase assay with purified GST-DES1, HPLC of products; assay type: biochemical
T1 sequence (Q5F3C1 1-323): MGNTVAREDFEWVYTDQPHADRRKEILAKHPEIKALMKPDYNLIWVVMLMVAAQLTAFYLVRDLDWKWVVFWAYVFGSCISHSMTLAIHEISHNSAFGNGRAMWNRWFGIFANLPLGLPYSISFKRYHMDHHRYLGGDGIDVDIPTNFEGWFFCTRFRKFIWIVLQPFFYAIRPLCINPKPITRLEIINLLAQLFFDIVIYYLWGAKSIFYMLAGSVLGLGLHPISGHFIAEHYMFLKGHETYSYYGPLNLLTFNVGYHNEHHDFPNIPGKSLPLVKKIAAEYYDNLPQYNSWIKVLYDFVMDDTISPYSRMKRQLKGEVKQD

DES1 = DES1 (Homo sapiens, UniProt O15121); assay: retinol isomerase assay in homogenates of transfected […] cells, HPLC; assay type: cell-based
DES1, sequence (O15121 2-323): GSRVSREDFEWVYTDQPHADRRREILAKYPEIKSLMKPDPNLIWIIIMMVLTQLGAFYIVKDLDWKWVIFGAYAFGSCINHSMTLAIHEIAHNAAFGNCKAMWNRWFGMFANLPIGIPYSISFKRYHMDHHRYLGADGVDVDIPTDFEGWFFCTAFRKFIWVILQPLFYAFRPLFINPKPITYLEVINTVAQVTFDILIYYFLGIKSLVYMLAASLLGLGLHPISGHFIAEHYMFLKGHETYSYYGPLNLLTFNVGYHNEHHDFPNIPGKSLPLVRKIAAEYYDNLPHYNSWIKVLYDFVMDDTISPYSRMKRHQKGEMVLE

[2] = biological target: T1, dihydroceramide desaturase-1 (DES1); assay type: biochemical

Structure (SMILES) | retinol isomerase assay with purified GST-DES1, HPLC of products [1] | retinol isomerase assay in homogenates of transfected 293T cells, HPLC (DES1) | pKi [2]
CC1=C(/C=C/C(C)=C/C=C/C(C)=C/CO)C(C)(C)CCC1 [all-trans-ROL, all-trans-retinol] | Purified GST-DES1 exhibited dramatically higher isomerase-2 activities | The rate of 11-cis-ROL synthesis was dramatically higher for DES1 versus the other membrane desaturases | –
CC1=C(/C=C/C(C)=C/C=C/C(C)=C/C(=O)Nc2ccc(O)cc2)C(C)(C)CCC1 [4-HPR, fenretinide] | – | – | 5.07
